From patent publication US7767796B2, “N4 chelator conjugates” (GE Healthcare Limited, priority 2004, dated 2010)

What was measured:
[1] = Measurement of lipophilicity (LogP): octanol-water partition coefficient of the 99mTc complexes; format: physicochemical; settings: for Log P (octanol/50 mM phosphate buffer): 99mTc complex of the compound, 1-octanol / 50 mM phosphate buffer pH 7.4, room temperature; for Log P: 99mTc complex, repeated in the biodistribution table
Procedure: The tube was vortexed at room temperature for 1 min and then was centrifuged at high speed for 60 min. 0.1 ml samples of both phases were pipetted into other test tubes with adequate care to avoid cross contamination between the phases, and were counted in a Wallac Wizzard gamma-counter. The measurement was repeated three times.
The partition coefficient, P, was calculated as follows: P=(cpm in octanol−(cpm background)/( (cpm in water−(cpm background).
Usually the final partition coefficient value was expressed as log P.

[2] = Biodistribution of the 99mTc complexes in normal male Wistar rats; format: in vivo; settings: 99mTc complex, rat; for Clearance (% ID) HBS 120 min / Blood 120 min / Heart 120 min / Liver 120 min / Lung 120 min / Muscle 120 min / Clearance (% ID) Urine (K, B, U) 120 min: 120 min p.i.; for Blood 5 min: 5 min p.i.; for Heart/blood / Heart/liver / Heart/lung / Heart/muscle: ratio of uptake, 120 min values
Procedure: The ^99mTc complexes of Compounds 4, 5 and 7 were prepared as described in Example 8. […] Animals were anaesthetised with Halothane (6% in oxygen), injected with 0.1 ml (500 MBq/ml) Test Item, sacrificed, dissected and the samples assayed for radioactivity.

NCCNCC(CCCCCCNC(=O)c1ccccc1)CNCCN [Compound 6]
Log P (octanol/50 mM phosphate buffer) [1]: −1.8

CC[C@H](C)[C@H](NC(=O)[C@@H]1CCCN1C(=O)[C@H](Cc1cnc[nH]1)NC(=O)[C@@H](NC(=O)[C@H](Cc1ccc(O)cc1)NC(=O)[C@@H](NC(=O)[C@H](CCCNC(=N)N)NC(=O)NCCCCCCC(CNCCN)CNCCN)C(C)C)[C@@H](C)CC)C(=O)O (99mTc complex, metal not drawn) [Compound 7]
Log P (octanol/50 mM phosphate buffer) [1]: <−2 | Log P [1]: <−2 | Clearance (% ID) HBS 120 min [2]: 19.63 % ID | Blood 5 min [2]: 0.84 % ID/G | Blood 120 min [2]: 0.05 % ID/G | Heart 120 min [2]: 0.1 % ID/G | Liver 120 min [2]: 1.55 % ID/G | Lung 120 min [2]: 0.4 % ID/G | Muscle 120 min [2]: 0.1 % ID/G | Heart/blood [2]: 2 | Heart/liver [2]: 0.06 | Heart/lung [2]: 0.25 | Heart/muscle [2]: 1 | Clearance (% ID) Urine (K, B, U) 120 min [2]: 64.26 % ID

CCCCc1nc(Cl)c(CNC(=O)C(CC(C)C)NC(=O)COCC(=O)NCCOCCOCCOCCNC(=O)CC(CNCCN)CNCCN)n1Cc1ccc(-c2ccccc2-c2nn[nH]n2)cc1 (centres unmarked) (99mTc complex, metal not drawn) [Compound 5]
Log P (octanol/50 mM phosphate buffer) [1]: −0.1 | Log P [1]: −0.1 | Clearance (% ID) HBS 120 min [2]: 54.21 % ID | Blood 5 min [2]: 1.5 % ID/G | Blood 120 min [2]: 0.26 % ID/G | Heart 120 min [2]: 0.13 % ID/G | Liver 120 min [2]: 3.53 % ID/G | Lung 120 min [2]: 0.6 % ID/G | Muscle 120 min [2]: 0.9 % ID/G | Heart/blood [2]: 0.5 | Heart/liver [2]: 0.04 | Heart/lung [2]: 0.21 | Heart/muscle [2]: 1.44 | Clearance (% ID) Urine (K, B, U) 120 min [2]: 14.45 % ID

CCCCc1nc(Cl)c(CNC(=O)C(CC(C)C)NC(=O)CC(CNCCN)CNCCN)n1Cc1ccc(-c2ccccc2-c2nn[nH]n2)cc1 (centres unmarked) (99mTc complex, metal not drawn) [Compound 4]
Log P (octanol/50 mM phosphate buffer) [1]: +0.6 | Log P [1]: 0.6 | Clearance (% ID) HBS 120 min [2]: 74.65 % ID | Blood 5 min [2]: 3.26 % ID/G | Blood 120 min [2]: 0.91 % ID/G | Heart 120 min [2]: 0.44 % ID/G | Liver 120 min [2]: 6.52 % ID/G | Lung 120 min [2]: 1.84 % ID/G | Muscle 120 min [2]: 0.34 % ID/G | Heart/blood [2]: 0.49 | Heart/liver [2]: 0.07 | Heart/lung [2]: 0.24 | Heart/muscle [2]: 1.3 | Clearance (% ID) Urine (K, B, U) 120 min [2]: 21.13 % ID

NCCNCC(CNCCN)CC(=O)NCc1ccccc1 [Compound 3]
Log P (octanol/50 mM phosphate buffer) [1]: <−2
